# Data published in US20200031920A1, “Combination Therapy for Treating Cancer” (The George Washington University, priority 2017, published 2020).
# Assays:
# IGROV1 cells = assay: cell proliferation assay, IGROV1 parental cells; assay type: cell-based; settings: 5 days
# Description: FIG. 60 is a line graph showing the proliferation of IGROV1 parental and IGROV1 CR cells treated with increasing concentrations of cisplatin for 5 days (left). Data are represented as mean±SD from three independent experiments performed in triplicate. Indicated IC50 values represent the mean of two independent experiments performed in triplicate.
# Using a similar approach as described in FIG. 1, another cisplatin resistant ovarian cancer cell line IGROV1 CR was raised from its cisplatin sensitive parental cell IGROV1 cells. […] The cell proliferation of IGROV1 CR cells treated with cisplatin, LY2784544 or both LY2784544 and cisplatin was examined.
# SKOV3 xenograft tumors = assay: SKOV3 and SKOV3 CR xenograft tumors treated with cisplatin; assay type: in vivo, nude mice
# Procedure: FIG. 4 is an illustration showing representative TUNEL staining (A) and a bar graph (B) of SKOV3 and SKOV3 CR xenograft tumors treated with cisplatin for two weeks (2 mg/kg or 4 mg/kg cisplatin twice per week) and quantified apoptosis percentage (B). n−3 mice/group. Bar in (A)−50 μm. Data are represented as mean±SD. **p<0.01, ***p<0.001.
# FIG. 52 is a bar graph showing IL-11 levels measured by ELISA in plasma of mice bearing SKOV3 xenograft tumors treated with vehicle or cisplatin (2-6 mg/kg/twice a week intraperitoneally for 2 weeks). Data are represented as mean±SD. n=3 mice/group. **p<0.01, ***p<0.001.
# Since cisplatin exerts its anticancer effect mainly through its ability to cause DNA damage, resulting in apoptosis, the apoptotic cells in both SKOV3 and SKOV CR cells were measured using Annexin V and Propidium Iodide staining. […] To test whether SKOV3 CR cells are resistant to cisplatin-induced apoptosis in vivo, both SKOV3 and SKOV3 CR cells were injected into nude mice to form xenograft tumors. Once the tumor size reached 100-150 mm^3, cisplatin was given to mice by intraperitoneal injections twice a week for 2 weeks. Three days after treatment, the apoptosis in tumors was examined by TUNEL staining. […] Currently, carboplatin is a more commonly used platinum drug employed clinically to treat ovarian patients. Ozols et al., J Clin Oncol 21: 3194-3200 (2003). Thus, it was tested whether SKOV3 CR cells are also resistant to carboplatin (Sigma-Aldrich).
# To further test whether ovarian cancer cells have a similar response to cisplatin in vivo, SKOV3 xenograft tumors were treated with various doses of cisplatin (2 mg-6 mg/kg/twice per week) for 2 weeks. Mice were sacrificed 4 days after the last treatment, and blood samples and xenograft tumors were collected to examine IL-11 expression. […] A high dose of cisplatin generated the high levels of both IL-11 and pJAK2 (Y1007/1008) on tumors (FIG. 53). Thus, cisplatin is able to promote expression of IL-11 as well as JAK2 pathway both in vitro and in vivo.
# SKOV3 CR cells = assay: clonogenic (colony formation) assay; assay type: cell-based; settings: 0.1 μM LY2784544 and 0.5 μM cisplatin, 14 days
# Procedure: FIG. 16 is an illustration showing representative colony formation (A) and bar graphs ((B)-(C)). SKOV3 parental and resistant cells were treated with 0.1 μM LY2784544 and 0.5 μM cisplatin for 14 days and quantification data of colony formation assays ((B) and (C)). Colonies in (A) were stained with crystal violet. Data are represented as mean±SD from three independent experiments performed in triplicate. *p<0.05, **p<0.01, ***p<0.001.
# Clonogenic assays were conducted to evaluate the cell survival of SKOV3 and SKOV3 CR cells in response to cisplatin, LY2784544, or both cisplatin and LY2784544. […] Currently, carboplatin-based chemotherapy becomes a universal choice. The synergistic effect of LY2784544 with carboplatin on SKOV3 CR cells was also examined.
# [1] = tested on: SKOV3 CR xenograft tumors; assay: SKOV3 CR xenograft tumors in nude mice; assay type: in vivo
# Procedure: FIG. 26 are line graphs showing the growth curves of tumors (A) and Kaplan-Meier survival curves (C) from mice treated with vehicle, LY2784544 (15 mg/kg/day intraperitoneally), cisplatin (8 mg/kg/week intraperitoneally), or LY2784544 plus cisplatin (combo) for 2 weeks. A photograph of the representative tumor from mice in each treatment arm is also shown (B). Data in (A) are represented as mean±SEM, n=6 mice/group. *p<0.05, **p<0.01, ***p<0.001. Data in (B) are represented as n=6 mice/group. *p<0.05, **p<0.01. Ruler scale in (B) is in cm.
# FIG. 27 is an illustration showing the IHC and TUNEL staining of tumors from mice in each treatment arm sacrificed after 4 days of treatment. n=3 mice/group. Bar=50 μm.
# To determine whether LY2784544 is able to sensitize SKOV3 CR cells to cisplatin in vivo, SKOV3 CR cells were implanted subcutaneously into nude mice. When the tumor volume reached 100 mm^3, mice were randomized to receive intraperitoneal injections of vehicle, cisplatin (8 mg/kg on days 1 and 8), LY2784544 (15 mg/kg/d from day 1 to day 14), or the combination of cisplatin and LY2784544. […] To evaluate whether this in vivo tumor suppression was through inhibition of the JAK2 pathway and increased apoptosis, the tumor samples four days after full dosage treatment were collected. […] Quantification of phosphorylated JAK2 and TUNEL staining in tumor tissues treated was performed (FIG. 28). […] To confirm the selectivity of LY2784544, an in vitro kinase profiling was conducted to examine the interaction of LY2784544 with more than 450 human kinases.
# [2] = SKOV3 xenograft, cisplatin 2-6 mg/kg twice per week for 2 weeks
# [3] = tumor samples four days after full dosage treatment
SMILES,IC50 (IGROV1 cells),IL-11 and pJAK2 levels in tumors (IHC) (SKOV3 xenograft tumors; [2]),human IL-11 levels in serum (SKOV3 xenograft tumors; [2]),"apoptosis in xenograft tumors (TUNEL) (SKOV3 xenograft tumors; cisplatin i.p. twice a week for 2 weeks (2 or 4 mg/kg), three days after treatment)","cell survival, combined treatment compared to cisplatin treatment (SKOV3 CR cells)","tumor growth, combination versus vehicle or single agents ([1]; LY2784544 15 mg/kg/d i.p. day 1-14 plus cisplatin 8 mg/kg i.p. days 1 and 8)","survival of mice, combination ([1]; LY2784544 15 mg/kg/d i.p. plus cisplatin 8 mg/kg i.p. days 1 and 8)","histopathology of liver and kidney ([1]; any treated groups (cisplatin, LY2784544, combination), 4 days after final treatment)","mouse body weight, combined treatment with cisplatin ([1]; during treatment)","apoptosis in tumors (TUNEL), combined with cisplatin [1, 3]","phosphorylation of JAK2 in tumors (IHC) [1, 3]"
N.N.[Cl][Pt][Cl] [cisplatin],510 nM,significant increase of IL-11 as well as pJAK2 (Y1007/1008) levels in SKOV3 tumors,dramatically increased human IL-11 levels in serum of nude mice,apoptotic population was significantly increased in SKOV3 but not in SKOV3 CR cells,–,–,–,–,–,–,–
Cc1cc(Nc2cc(CN3CCOCC3)c3nc(C)c(Cc4ccc(Cl)cc4F)n3n2)n[nH]1 [LY2784544],–,–,–,–,significantly reduced the survival of SKOV3 CR,significantly reduced the tumor growth,improved survival of the mice,No histopathological changes and lesions in liver and kidney,no significant reduction in mouse body weight,significantly induced the apoptosis,efficiently reduce the phosphorylation of JAK2 in vivo
